Assay [1] deals with other histone H3 methylated lysine residues in MDA-MB-231 cells. As to the kind of experiment: Western blotting of other methylated histone H3 lysine residues in MDA-MB-231 cells. Format: cell-based, human. The note with it: 48 h. As for the experimental part: (§1) Total cell lysates were prepared in 2× sample loading buffer [250 mM Tris-HCl (pH 6.8), 10% glycerol, 4% sodium dodecyl sulfate (SDS), 2% β-mercaptoethanol, 0.006% bromophenol blue, 5 mM sodium orthovanadate, and 50 mM sodium fluoride; Bio-Rad, Hercules, CA, USA]. The protein concentrations of samples were quantified using the bicinchoninic acid (BCA) method and a BCA Protein Assay Kit (Thermo Fisher Scientific, Waltham, MA, USA). Equal amounts of protein (5–20 μg) were separated by 6–13% SDS-polyacrylamide gel electrophoresis (PAGE) and transferred to polyvinylidene fluoride membranes (Millipore, Bedford, MA, USA). The membranes were blocked with 5% bovine serum albumin (Sigma-Aldrich) and then probed with anti-DOT1L, anti-H3K79me2, anti-β-Actin, anti-histone H3, anti-H3K4me2, anti-H3K27me2, anti-H3K36me2, anti-H3K79me1, anti-H3K79me3, and anti-Vimentin antibodies purchased from Cell Signaling Technology (Beverly, MA, USA) or with anti-E-cadherin and anti-N-cadherin antibodies purchased from (BD Biosciences, San Jose, CA, USA). The blots were detected using a WEST-Queen detection system (iNtRON Biotechnology, Seongnam, Korea).
Background: A western blot detects proteins with antibodies after separation by electrophoresis.

Assay [2] concerns MCF10A normal breast epithelial cells. The assay can be described thus: SRB cell proliferation assay, MCF10A. The conditions noted are these: Homo sapiens, MCF-10A, 72 h. Format: cell-based, human. As for the experimental part:
(§2) Human breast epithelial cell line (MCF10A) and human TNBC cell lines (MDA-MB-468, MDA-MB-231, Hs578T, and HCC38 cells) were provided by the American Type Culture Collection (Manassas, VA, USA). MCF10A cells were cultured in Dulbecco’s Modified Eagle’s Medium/Nutrient Mixture F-12 containing 5% donor horse serum, 100 ng/mL cholera toxin, 10 µg/mL human insulin, 20 ng/mL epidermal growth factor, 0.5 µg/mL hydrocortisone, and penicillin-streptomycin (sodium penicillin G: 100 units/mL; streptomycin: 100 μg/mL). The TNBC cells were cultured in medium [Dulbecco’s Modified Eagle’s Medium for MDA-MB-468, MDA-MB-231, and Hs578T cells; Roswell Park Memorial Institute 1640 medium for HCC38 cells] supplemented with penicillin-streptomycin and 10% fetal bovine serum at 37 °C in a humidified incubator with 5% carbon dioxide. MCF10A cells were cultured in DMEM/F12 containing 5% donor horse serum, 100 ng/mL cholera toxin, 10 µg/mL human insulin, 20 ng/mL epidermal growth factor, 0.5 µg/mL hydrocortisone and penicillin-streptomycin. All reagents used for cell culture, including culture medium, fetal bovine serum, trypsin-EDTA solution (1×), and penicillin-streptomycin solution (100×), were purchased from Gibco (Grand Island, NE, USA). Laemmli sample buffer (2×) and 2-mercaptoethanol were purchased from Bio-Rad Laboratories, Inc. (Hercules, CA, USA). EPZ-5676 was purchased from Cayman Chemical (Ann Arbor, MI, USA). Dimethyl sulfoxide (DMSO), bicinchoninic acid, copper (II) sulfate solution, bovine serum albumin (BSA), trichloroacetic acid, sulforhodamine B (SRB), and paclitaxel were purchased from Sigma–Aldrich (St. Louis, MO, USA).
(§3) Cell proliferation was evaluated using the SRB assay. Briefly, cells were seeded in 96-well plates and incubated for 30 min (for 0-day controls) or treated with test compounds for the times indicated. After incubation, the cells were fixed, dried, and stained with 0.4% (w/v) SRB in 1% (v/v) acetic acid solution. Unbound dye was removed by washing, and stained cells were dissolved in 10 mM Tris (pH 10.0). Cell proliferation was then determined by measuring the absorbance at 515 nm.

The test system of assay [3] is E-cadherin, N-cadherin, vimentin in MDA-MB-231 cells. As to the kind of experiment: Western blotting of EMT biomarkers in MDA-MB-231 cells. Format: cell-based, human. The note with it: 24 h. As for the experimental part:
as §1

Assay [4] deals with H3K79 methylation (DOT1L) in MDA-MB-231 cells. The assay can be described thus: Western blotting of H3K79 methylation in MDA-MB-231 cells. The note with it: indicated concentrations, 48 h. The assay is classed as cell-based, human. The protocol: as §1
The target in assay [5] is T1, DOT1L (Homo sapiens, UniProt Q8TEK3).
T1 construct: purchased BPS Bioscience 52202
T1 sequence (Q8TEK3 whole entry): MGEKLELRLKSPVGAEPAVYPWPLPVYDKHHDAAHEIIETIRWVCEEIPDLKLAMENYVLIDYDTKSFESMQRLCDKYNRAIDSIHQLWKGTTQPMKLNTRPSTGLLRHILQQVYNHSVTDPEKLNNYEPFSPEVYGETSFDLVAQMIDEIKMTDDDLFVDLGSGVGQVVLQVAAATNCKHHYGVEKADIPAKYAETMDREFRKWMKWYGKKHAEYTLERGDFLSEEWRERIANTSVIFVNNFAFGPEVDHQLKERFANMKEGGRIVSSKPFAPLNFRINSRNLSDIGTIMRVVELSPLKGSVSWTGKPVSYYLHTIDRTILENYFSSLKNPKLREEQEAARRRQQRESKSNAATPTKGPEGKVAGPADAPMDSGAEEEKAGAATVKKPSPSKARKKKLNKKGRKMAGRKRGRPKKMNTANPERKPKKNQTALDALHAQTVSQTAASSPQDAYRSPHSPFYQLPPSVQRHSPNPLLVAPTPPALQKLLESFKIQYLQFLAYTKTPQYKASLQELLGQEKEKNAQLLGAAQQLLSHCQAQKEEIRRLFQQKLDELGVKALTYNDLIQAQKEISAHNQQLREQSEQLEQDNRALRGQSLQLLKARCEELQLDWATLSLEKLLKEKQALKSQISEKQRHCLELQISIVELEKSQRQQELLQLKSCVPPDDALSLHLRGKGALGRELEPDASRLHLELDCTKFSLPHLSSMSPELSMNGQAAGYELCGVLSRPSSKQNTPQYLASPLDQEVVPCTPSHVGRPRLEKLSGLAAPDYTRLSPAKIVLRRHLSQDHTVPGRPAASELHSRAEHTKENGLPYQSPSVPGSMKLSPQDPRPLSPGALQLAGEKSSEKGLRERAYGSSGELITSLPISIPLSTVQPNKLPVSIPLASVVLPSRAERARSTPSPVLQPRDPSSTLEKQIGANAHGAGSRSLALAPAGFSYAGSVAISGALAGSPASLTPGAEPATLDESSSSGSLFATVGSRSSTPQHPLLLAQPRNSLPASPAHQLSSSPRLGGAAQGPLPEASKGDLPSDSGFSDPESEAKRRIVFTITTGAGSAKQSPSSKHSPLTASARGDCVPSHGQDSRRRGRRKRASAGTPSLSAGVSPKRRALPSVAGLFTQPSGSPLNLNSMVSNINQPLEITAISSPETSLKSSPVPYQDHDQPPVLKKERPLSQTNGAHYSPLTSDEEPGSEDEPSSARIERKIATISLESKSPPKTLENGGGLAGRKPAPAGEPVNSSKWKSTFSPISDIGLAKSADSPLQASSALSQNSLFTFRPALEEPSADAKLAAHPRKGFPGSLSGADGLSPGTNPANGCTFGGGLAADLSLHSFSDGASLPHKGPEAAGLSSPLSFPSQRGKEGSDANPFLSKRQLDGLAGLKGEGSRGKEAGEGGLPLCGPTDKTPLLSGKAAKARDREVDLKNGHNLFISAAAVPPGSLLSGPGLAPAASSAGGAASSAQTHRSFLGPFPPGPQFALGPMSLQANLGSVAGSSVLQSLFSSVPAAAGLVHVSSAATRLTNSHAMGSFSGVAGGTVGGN
The assay can be described thus: DOT1L enzyme activity assay (cell-free). The assay is classed as biochemical. The note with it: 500 ng/well DOT1L, 2 h incubation. The protocol:
DOT1L enzyme activity was measured using 5 μM S-adenosyl methionine (SAM) as the methyl group donor, synthesized DOT1L substrate as the substrate, and 25 ng/μL DOT1L enzymes from BPS Bioscience (Cat. No. 52202; San Diego, CA, USA) according to the manufacturer’s instructions.

The subject of assay [6] is MDA-MB-231 TNBC cells. As to the kind of experiment: SRB cell proliferation assay, MDA-MB-231. Format: cell-based, human. As for the experimental part: as §2, §3
Assay [7] concerns MDA-MB-231 cells. As to the kind of experiment: Wound healing assay (cell migration). Format: cell-based, human. The conditions noted are these: 24 h. As for the experimental part:
MDA-MB-231 human TNBC cells were grown to 90% confluence in a 6-well plate. Subsequently, each cell monolayer was artificially wounded using a Scratcher (SPL Life Sciences, Pocheon, Republic of Korea), and the detached cells were removed by washing with phosphate-buffered saline (PBS, Invitrogen Corp., Carlsbad, CA, USA). The wounded cultures were then incubated with medium containing 1% FBS and various concentrations of 9l and PsA for 24 h. The wounds were photographed at 0 and 24 h under an inverted microscope (Olympus, Tokyo, Japan). The wound areas were quantified using ImageJ software (National Institutes of Health, Bethesda, MD, USA) and presented as the percent wound healing (%) relative to the wound area at 0 h.

As to `CC(C)(C)c1ccc(C/C(=N\O)C(=O)NCC[Se]Sc2ccccc2)cc1` [9l, (E)-3-(4-(tert-Butyl)phenyl)-2-(hydroxyimino)-N-(2-((phenylthio)selanyl)ethyl)propanamide], the “other histone H3 methylated lysine residues” value in assay [1] is recorded as “not affected”. The 50% inhibitory concentration (IC50) in assay [2] is 25.9 µM; in assay [5] it was 0.363 µM; in assay [6] (Homo sapiens, MDA-MB-231, 72 h, SRB assay), 0.16 µM. Further, in assay [3], the E-cadherin protein expression entry was “upregulation”. In assay [3], the N-cadherin protein expression result is listed as “downregulation”. Moreover, the vimentin protein expression result in assay [3] is reported as “downregulation”. Besides, the H3K79 methylations result in assay [4] is given as “effectively suppressed H3K79 methylations in a concentration-dependent manner”. Moreover, in assay [6] (ratio of IC50 values between MCF10A and MDA-MB-231 cells), the “Therapeutic Index” value came out at 161.63. In addition, the “wound closure (cell migration)” value in assay [7] is listed as “significantly inhibited”.

For orientation: IC50 means the concentration that gives 50% inhibition. Low readings indicate greater potency in that assay, high ones weaker potency in that assay.

The values above are taken from publication PMC7824081, “Inhibition of DOT1L by Half-Selenopsammaplin A Analogs Suppresses Tumor Growth and EMT-Mediated Metastasis in Triple-Negative Breast Cancer” (Pharmaceuticals, 2020).
